From patent US20210276967A1 (OSPEDALE SAN RAFFAELE S.R.L., priority 2018, published 2021) come the findings set out here.

The test system of one assay is HBV. Description: HBV inhibition in HepAD38 cells, extracellular HBV DNA by direct qPCR. It is filed as cell-based, hepatitis B virus. The conditions noted are these: Hepatitis B virus.
A further assay deals with HBV genotype A. Kind of assay: Antiviral activity in HepG2 cells transfected with HBV genotype A plasmid, extracellular HBV DNA qPCR. The note with it: Hepatitis B virus, read-out: HBV inhibition EC50 (Mean ± StD). It is filed as cell-based. Here is the method:
(§1) HepG2 hepatoma cells transfected with HBV plasmids corresponding to the different isolates were used to perform antiviral assay against different HBV genotypes. HBV plasmids were obtained by cloning fragment containing of 1.1-mer HBV genome into the SacI/SaII sites of pcDNA3.1zeo(−) plasmid (V86520, Thermofisher Scientific). The HepG2 cell line was maintained in DMEM, supplemented with 10% of FBS, 1% glutamine and 1% penicillin/streptomycin.
(§2) HBV inhibition activity was determined on different HBV genotypes. For this purpose plasmids pcDNA3.1Zeo(−)-HBV1.1 expressing HBV genotypes A, B, C, D, E were transfected in HepG2 cell line and extracellular HBV quantification was performed by direct qPCR as described above. In detail, cells were seeded at 20,000 cells/well in polylisine coated 96-multiwell plates and 24 h later HBV plasmids were transfected with lipofection using manufacturer's procedure (Lipofectamine 3000 Reagent, Thermofisher Scientific). Five hours after transfection cells were extensively washed with PBS and compounds were added in 8-point dose-response curve in 0.5% DMSO as described above. After 4 days of incubation at 37° C. cells were subjected to cell viability assays and extracellular HBV quantification, in order to evaluate both the cytotoxic potential and the anti-viral activity of compounds, as described above. […]

The next assay relates to HBV genotype E. Kind of assay: Antiviral activity in HepG2 cells transfected with HBV genotype E plasmid, extracellular HBV DNA qPCR. The assay is classed as cell-based. The conditions noted are these: Hepatitis B virus, read-out: HBV inhibition EC50 (Mean ± StD). How it is done: as §1, §2
A further assay deals with HBV genotype B. Kind of assay: Antiviral activity in HepG2 cells transfected with HBV genotype B plasmid, extracellular HBV DNA qPCR. The conditions noted are these: Hepatitis B virus, HepG2, read-out: HBV inhibition EC50 (Mean ± StD, μM). It is filed as cell-based. How it is done:
as §1, §2

For a further assay, the system named is HBV genotype D. Kind of assay: Antiviral activity in HepG2 cells transfected with HBV genotype D plasmid, extracellular HBV DNA qPCR. It is filed as cell-based. The note with it: Hepatitis B virus, read-out: HBV inhibition EC50 (Mean ± StD). Here is the method:
as §1, §2

Molecules are shown by their SMILES. Some results are limits rather than exact numbers.

Consider `Nc1ccc(C(=O)Nc2cc(F)c(F)c(F)c2)cc1S(N)(=O)=O` [Example E3, 4-amino-3-sulfamoyl-N-(3,4,5-trifluorophenyl)benzamide], for which, in the assay on HBV (0.5 μM, HepAD38, 96 hours, read-out: HBV inhibition % (conc μM)), the inhibition at 0.5 µM was more than 50%.

Consider `Cc1cc(N)c(S(N)(=O)=O)cc1C(=O)Nc1cc(F)c(F)c(F)c1` [Example E17, 4-amino-2-methyl-5-sulfamoyl-N-(3,4,5-trifluorophenyl)benzamide], for which the EC50 in the assay on HBV genotype A is 58.2 ± 25.4 nM; in the assay on HBV genotype E, 51.2 ± 13.6 nM; in the assay on HBV genotype B, 0.0498 ± 0.0179 µM; with HBV genotype D, 38.7 ± 11.1 nM; in the assay on HBV (HepAD38, 8-point dose-response, read-out: HBV inh EC50) it was less than 1000 nM.
